Targets include CK1e (Homo sapiens, UniProt P49674); EphA4 (Homo sapiens, UniProt P54764); MSSK1 (Homo sapiens, UniProt Q9UPE1); BIKE (Homo sapiens, UniProt Q9NSY1); CHK2 (Homo sapiens, UniProt O96017); NEK7 (Homo sapiens, UniProt Q8TDX7).
Holding throughout (settings): binder
A further test has as its target T1, GAK (Homo sapiens, UniProt O14976).
T1 sequence (O14976 1-1311): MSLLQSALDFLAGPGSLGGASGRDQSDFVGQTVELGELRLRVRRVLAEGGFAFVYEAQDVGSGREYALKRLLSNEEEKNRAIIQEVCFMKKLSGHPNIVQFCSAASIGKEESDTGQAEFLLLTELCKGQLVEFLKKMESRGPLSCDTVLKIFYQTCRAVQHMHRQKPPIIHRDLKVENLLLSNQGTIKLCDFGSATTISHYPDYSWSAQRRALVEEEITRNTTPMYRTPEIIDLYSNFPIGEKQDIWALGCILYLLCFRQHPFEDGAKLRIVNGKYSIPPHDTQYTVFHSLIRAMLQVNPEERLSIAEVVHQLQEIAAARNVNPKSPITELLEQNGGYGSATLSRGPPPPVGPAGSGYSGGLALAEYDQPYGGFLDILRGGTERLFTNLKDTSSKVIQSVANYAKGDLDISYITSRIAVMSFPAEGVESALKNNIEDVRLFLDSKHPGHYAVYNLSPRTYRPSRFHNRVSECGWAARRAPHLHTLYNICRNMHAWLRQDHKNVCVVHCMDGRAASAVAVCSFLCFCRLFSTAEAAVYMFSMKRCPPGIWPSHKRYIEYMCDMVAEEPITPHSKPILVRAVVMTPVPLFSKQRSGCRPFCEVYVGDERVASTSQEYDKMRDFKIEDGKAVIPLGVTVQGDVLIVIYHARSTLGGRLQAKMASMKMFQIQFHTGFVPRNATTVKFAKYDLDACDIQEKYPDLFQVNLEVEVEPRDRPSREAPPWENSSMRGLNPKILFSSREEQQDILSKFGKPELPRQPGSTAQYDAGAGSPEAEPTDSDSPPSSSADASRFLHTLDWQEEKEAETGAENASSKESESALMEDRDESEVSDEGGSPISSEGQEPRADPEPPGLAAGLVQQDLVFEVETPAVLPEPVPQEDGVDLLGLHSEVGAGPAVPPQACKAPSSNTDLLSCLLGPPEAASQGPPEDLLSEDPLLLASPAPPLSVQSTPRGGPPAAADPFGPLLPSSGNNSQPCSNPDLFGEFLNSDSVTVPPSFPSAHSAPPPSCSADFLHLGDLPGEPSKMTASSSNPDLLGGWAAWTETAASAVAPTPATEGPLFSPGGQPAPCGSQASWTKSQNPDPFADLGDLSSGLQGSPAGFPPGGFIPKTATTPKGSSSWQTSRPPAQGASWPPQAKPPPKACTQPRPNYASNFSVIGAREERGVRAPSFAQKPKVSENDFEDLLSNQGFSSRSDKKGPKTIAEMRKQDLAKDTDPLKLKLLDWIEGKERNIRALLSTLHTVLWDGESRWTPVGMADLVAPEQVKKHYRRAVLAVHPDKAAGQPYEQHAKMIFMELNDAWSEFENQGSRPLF

In the next test the target is T2, MAP2K4 (Homo sapiens, UniProt P45985).
T2 sequence (P45985 1-399): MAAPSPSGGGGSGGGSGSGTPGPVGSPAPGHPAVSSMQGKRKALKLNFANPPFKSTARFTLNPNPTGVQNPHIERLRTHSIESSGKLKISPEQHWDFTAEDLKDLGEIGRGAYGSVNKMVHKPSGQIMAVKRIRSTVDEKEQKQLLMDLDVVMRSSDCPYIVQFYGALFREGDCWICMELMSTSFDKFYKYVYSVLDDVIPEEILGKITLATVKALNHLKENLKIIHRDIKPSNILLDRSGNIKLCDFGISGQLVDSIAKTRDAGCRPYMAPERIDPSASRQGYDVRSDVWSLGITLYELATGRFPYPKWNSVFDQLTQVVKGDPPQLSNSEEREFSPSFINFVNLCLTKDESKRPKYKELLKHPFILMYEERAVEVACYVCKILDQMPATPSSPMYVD

The target in the next test is T3, MAP2K6 (Homo sapiens, UniProt P52564).
T3 sequence (P52564 1-334): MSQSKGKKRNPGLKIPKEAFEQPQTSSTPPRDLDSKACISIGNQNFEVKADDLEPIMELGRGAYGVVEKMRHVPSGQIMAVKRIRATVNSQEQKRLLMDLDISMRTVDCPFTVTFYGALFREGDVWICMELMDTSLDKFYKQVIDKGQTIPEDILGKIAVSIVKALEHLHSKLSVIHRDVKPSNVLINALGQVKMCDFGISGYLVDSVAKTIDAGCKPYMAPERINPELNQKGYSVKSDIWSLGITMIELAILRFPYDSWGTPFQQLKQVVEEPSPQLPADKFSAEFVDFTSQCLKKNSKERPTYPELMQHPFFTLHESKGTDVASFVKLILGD

The next test addresses T4, NQO2A (Homo sapiens, UniProt P16083).
T4 sequence (P16083 1-231): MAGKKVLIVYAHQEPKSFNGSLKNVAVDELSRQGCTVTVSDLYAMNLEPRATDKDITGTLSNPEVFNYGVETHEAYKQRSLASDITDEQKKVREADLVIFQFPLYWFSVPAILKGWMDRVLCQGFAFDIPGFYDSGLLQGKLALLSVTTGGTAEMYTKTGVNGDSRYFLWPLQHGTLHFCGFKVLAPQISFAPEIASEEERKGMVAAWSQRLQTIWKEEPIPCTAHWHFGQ

This note sets out measurements from doi:10.1101/2023.11.24.568596v1 (biorxiv, 2023).

Chain of MSSK1 (Q9UPE1 whole entry): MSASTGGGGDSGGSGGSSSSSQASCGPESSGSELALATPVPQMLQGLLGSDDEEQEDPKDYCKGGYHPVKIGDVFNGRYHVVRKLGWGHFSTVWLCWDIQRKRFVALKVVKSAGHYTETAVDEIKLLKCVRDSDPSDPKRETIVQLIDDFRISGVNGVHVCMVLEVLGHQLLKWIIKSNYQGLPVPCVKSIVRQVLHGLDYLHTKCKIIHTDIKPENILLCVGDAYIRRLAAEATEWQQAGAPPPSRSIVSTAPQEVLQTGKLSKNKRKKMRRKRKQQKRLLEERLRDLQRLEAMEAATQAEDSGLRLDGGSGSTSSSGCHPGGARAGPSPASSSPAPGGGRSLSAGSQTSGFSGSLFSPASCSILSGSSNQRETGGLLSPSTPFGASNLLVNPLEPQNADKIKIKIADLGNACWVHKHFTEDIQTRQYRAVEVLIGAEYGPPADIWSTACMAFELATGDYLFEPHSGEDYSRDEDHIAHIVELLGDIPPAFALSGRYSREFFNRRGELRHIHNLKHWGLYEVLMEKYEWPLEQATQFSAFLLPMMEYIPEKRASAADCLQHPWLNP
Chain of NEK7 (Q8TDX7 whole entry): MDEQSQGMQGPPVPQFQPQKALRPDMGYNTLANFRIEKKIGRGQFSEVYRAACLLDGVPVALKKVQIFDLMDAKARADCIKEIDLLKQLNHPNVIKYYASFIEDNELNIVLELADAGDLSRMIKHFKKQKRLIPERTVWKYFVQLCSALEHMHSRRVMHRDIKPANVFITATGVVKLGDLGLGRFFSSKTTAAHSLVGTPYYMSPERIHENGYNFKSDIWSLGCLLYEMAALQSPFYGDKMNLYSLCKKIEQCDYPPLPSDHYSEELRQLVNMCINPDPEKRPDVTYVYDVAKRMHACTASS
Chain of CK1e (P49674 whole entry): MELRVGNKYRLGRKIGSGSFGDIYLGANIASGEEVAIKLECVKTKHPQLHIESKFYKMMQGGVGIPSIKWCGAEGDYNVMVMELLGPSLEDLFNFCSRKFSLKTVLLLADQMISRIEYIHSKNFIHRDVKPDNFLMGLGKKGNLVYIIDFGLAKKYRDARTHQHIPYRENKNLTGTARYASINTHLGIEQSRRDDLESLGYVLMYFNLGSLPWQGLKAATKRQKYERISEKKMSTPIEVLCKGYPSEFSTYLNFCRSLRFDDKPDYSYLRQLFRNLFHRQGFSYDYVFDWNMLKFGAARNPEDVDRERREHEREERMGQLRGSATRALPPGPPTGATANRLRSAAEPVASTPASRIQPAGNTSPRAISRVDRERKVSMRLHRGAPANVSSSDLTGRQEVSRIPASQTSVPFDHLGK
Chain of EphA4 (P54764 whole entry): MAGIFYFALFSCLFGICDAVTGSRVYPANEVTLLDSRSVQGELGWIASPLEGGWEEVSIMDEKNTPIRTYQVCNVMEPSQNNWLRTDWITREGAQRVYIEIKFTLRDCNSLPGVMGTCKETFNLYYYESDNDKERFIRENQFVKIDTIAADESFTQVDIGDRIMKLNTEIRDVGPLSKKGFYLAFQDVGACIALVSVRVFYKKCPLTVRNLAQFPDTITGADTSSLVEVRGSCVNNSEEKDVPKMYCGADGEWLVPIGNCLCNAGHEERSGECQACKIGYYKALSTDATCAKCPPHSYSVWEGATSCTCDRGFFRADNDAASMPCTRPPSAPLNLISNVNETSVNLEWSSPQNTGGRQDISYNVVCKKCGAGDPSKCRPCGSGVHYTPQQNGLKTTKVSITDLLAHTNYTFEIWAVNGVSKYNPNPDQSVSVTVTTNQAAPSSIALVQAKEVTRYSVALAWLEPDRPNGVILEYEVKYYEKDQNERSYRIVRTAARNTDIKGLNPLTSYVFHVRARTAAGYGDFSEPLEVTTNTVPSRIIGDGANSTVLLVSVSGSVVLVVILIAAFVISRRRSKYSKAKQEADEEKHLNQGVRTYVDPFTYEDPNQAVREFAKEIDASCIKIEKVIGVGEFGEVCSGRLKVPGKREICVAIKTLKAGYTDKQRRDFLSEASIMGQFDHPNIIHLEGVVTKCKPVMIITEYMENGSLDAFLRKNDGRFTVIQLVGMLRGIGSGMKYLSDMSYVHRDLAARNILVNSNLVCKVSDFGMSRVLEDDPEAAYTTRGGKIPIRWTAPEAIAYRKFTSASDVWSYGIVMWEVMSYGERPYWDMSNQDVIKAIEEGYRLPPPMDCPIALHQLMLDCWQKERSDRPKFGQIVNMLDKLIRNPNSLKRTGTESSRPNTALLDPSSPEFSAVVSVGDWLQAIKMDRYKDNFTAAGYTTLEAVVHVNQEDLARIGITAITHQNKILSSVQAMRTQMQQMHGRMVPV
Chain of CHK2 (O96017 whole entry): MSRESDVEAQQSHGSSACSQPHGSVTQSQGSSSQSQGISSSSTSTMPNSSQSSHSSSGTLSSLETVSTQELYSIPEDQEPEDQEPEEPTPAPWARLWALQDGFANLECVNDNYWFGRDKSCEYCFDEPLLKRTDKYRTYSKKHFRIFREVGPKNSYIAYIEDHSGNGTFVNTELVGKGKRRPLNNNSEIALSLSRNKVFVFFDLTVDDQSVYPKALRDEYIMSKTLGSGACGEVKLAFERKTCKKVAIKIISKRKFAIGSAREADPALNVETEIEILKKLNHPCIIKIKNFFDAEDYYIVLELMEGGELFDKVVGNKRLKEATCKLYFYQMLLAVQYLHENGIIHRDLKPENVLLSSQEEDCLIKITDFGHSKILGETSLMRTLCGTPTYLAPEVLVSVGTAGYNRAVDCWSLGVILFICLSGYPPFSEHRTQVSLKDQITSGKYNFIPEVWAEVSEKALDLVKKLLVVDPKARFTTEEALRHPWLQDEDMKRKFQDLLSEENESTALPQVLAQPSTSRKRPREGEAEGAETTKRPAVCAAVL
Chain of BIKE (Q9NSY1 whole entry): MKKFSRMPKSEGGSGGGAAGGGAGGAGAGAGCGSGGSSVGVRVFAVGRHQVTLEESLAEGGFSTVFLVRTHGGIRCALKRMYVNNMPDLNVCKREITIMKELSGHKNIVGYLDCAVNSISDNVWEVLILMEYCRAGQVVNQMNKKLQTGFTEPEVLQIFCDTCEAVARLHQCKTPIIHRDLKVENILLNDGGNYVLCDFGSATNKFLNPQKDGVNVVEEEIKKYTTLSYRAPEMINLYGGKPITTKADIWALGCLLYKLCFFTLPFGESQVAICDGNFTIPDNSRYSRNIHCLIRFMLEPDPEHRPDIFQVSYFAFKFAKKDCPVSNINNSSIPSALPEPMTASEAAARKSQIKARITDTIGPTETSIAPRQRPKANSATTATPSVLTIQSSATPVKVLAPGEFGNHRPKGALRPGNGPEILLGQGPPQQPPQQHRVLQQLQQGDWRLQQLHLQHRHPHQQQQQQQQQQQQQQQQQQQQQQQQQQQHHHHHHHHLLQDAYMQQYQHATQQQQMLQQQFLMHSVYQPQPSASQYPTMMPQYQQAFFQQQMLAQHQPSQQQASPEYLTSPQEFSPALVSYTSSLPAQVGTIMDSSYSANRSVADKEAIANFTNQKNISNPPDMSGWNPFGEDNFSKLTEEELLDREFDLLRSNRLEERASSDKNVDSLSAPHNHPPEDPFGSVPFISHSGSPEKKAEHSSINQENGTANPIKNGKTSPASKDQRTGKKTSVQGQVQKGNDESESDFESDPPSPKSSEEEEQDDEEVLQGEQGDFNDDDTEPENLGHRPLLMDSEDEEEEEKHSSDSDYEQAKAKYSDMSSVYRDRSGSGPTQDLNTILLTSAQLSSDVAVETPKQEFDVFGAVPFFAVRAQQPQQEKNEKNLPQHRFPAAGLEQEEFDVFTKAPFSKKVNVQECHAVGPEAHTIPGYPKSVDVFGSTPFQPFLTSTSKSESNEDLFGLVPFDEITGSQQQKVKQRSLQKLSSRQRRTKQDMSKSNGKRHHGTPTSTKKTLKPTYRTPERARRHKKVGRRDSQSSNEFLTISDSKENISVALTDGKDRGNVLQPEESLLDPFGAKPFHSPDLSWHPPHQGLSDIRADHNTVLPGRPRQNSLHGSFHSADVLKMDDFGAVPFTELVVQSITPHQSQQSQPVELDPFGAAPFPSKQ

With `CNc1ncc2cc(-c3ccc(-c4cccc(C)n4)cc3Cl)c(=O)n(CCC3CCNCC3)c2n1` [compound 22, 6-(2-Chloro-4-(6-methylpyridin-2-yl)phenyl)-2-(methylamino)-8-(2-(piperidin-4-yl)ethyl)pyrido[2,3-d]pyrimidin-7(8H)-one], the “ΔTm 22” value on CK1e is 6.8 °C; at EphA4, 2.5 °C; on MSSK1, -0.1 °C.

As for `CNc1ncc2cc(-c3ccc(-c4cccc(C)n4)cc3Cl)c(=O)n(C[C@H]3CC[C@H](N)CC3)c2n1` [compound 23, 23], the “ΔTm 23” value on EphA4 turned out to be 2.9 °C.

In the case of `Cc1cccc(-c2ccc(-c3cc4cnc(NC(CO)CO)nc4n(CCCCN)c3=O)c(Cl)c2)n1` [compound 24, 8-(4-Aminobutyl)-6-(2-chloro-4-(6-methylpyridin-2-yl)phenyl)-2-((1,3-dihydroxypropan-2-yl)amino)pyrido[2,3-d]pyrimidin-7(8H)-one], the “ΔTm MR24 (24)” value on CK1e was 6.4 °C; at EphA4, -0.3 °C; on MSSK1, -0.2 °C.

For `Cc1cccc(-c2ccc(-c3cc4cnc(NCCCc5ccc(N)cc5)nc4n(CCCCN)c3=O)c(Cl)c2)n1` [compound 25, 8-(4-Aminobutyl)-2-((3-(4-aminophenyl)propyl)amino)-6-(2-chloro-4-(6-methylpyridin-2-yl)phenyl)pyrido[2,3-d]pyrimidin-7(8H)-one], the figures for the “ΔTm 25” value on CK1e, on EphA4 and at MSSK1 were 8.0 °C, 1.8 °C and -0.4 °C, respectively.

On to `Cc1cccc(-c2ccc(-c3cc4cnc(NCCCN5CCOCC5)nc4n(CCCCN)c3=O)c(Cl)c2)n1` [compound 26, MR26], for which the “ΔTm MR26 (26)” value is 7.3 °C at CK1e, 2.5 °C at EphA4 and -0.3 °C on MSSK1.

Consider `Cc1cccc(-c2ccc(-c3cc4cnc(NCCCN5CCCC5=O)nc4n(CCCCN)c3=O)c(Cl)c2)n1` [compound 27, MR30], for which the “ΔTm MR30 (27)” value at BIKE is 0.4 °C; on CHK2, 2.5 °C; at GAK, 4.3 °C; on MAP2K4, 5.2 °C; on MAP2K6, 4.1 °C; at NEK7 it was -0.4 °C. Besides, the “ΔTm MR30 (27)” value on NQO2A came out at 0.5 °C.

Take `Cc1cccc(-c2ccc(-c3cc4cnc(Nc5cc(C(F)(F)F)ccc5C)nc4n(CCCCN)c3=O)c(Cl)c2)n1` [compound 28, 8-(4-Aminobutyl)-6-(2-chloro-4-(6-methylpyridin-2-yl)phenyl)-2-((2-methyl-5-(trifluoromethyl)phenyl)amino)pyrido[2,3-d]pyrimidin-7(8H)-one]: the “ΔTm 28” value is 0.3 °C on BIKE; 4.6 °C at CHK2; 9.4 °C on GAK; 11.0 °C on MAP2K4; 7.5 °C at MAP2K6; -0.7 °C on NEK7. Also, the “ΔTm 28” value at NQO2A was -0.7 °C.

In the case of `Cc1cccc(-c2ccc(-c3cc4cnc(NCCCN5CCNCC5)nc4n(CCCCN)c3=O)c(Cl)c2)n1` [compound 29, 8-(4-Aminobutyl)-6-(2-chloro-4-(6-methylpyridin-2-yl)phenyl)-2-((3-(piperazin-1-yl)propyl)amino)pyrido[2,3-d]pyrimidin-7(8H)-one], the “ΔTm 29” value on BIKE is 0.7 °C; on CHK2 it was 2.4 °C; on GAK, 4.2 °C; at MAP2K4 it was 3.5 °C; at MAP2K6 it was 1.9 °C; at NEK7 it was -0.2 °C. Also, on NQO2A, the “ΔTm 29” value came to 0.3 °C.

On to `Cc1cccc(-c2ccc(-c3cc4cnc(Nc5ccc(CCCO)cc5)nc4n(CCCCN)c3=O)c(Cl)c2)n1` [compound 30, 8-(4-Aminobutyl)-6-(2-chloro-4-(6-methylpyridin-2-yl)phenyl)-2-((4-(3-hydroxypropyl)phenyl)amino)pyrido[2,3-d]pyrimidin-7(8H)-one], for which the “ΔTm 30” value on BIKE is 6.4 °C; on CHK2, 10.4 °C; on GAK, 13.2 °C; on MAP2K4, 9.7 °C; on MAP2K6, 9.4 °C; on NEK7, -0.9 °C. Besides, on NQO2A, the “ΔTm 30” value was -0.2 °C.

As for `Cc1cccc(-c2ccc(-c3cc4cnc(Nc5ccc(O)cc5)nc4n(CCCCN)c3=O)c(Cl)c2)n1` [compound 31, 8-(4-Aminobutyl)-6-(2-chloro-4-(6-methylpyridin-2-yl)phenyl)-2-((4-hydroxyphenyl)amino) pyrido[2,3-d]pyrimidin-7(8H)-one], the “ΔTm 31” value is 6.5 °C on BIKE; 11.2 °C at CHK2; 13.3 °C at GAK; 10.8 °C at MAP2K4; 9.4 °C on MAP2K6; -1.6 °C on NEK7. Also, the “ΔTm 31” value at NQO2A is -0.3 °C.

For `Cc1cccc(-c2ccc(-c3cc4cnc(Nc5ccc(C)c(O)c5)nc4n(CCCCN)c3=O)c(Cl)c2)n1` [compound 32, 8-(4-Aminobutyl)-6-(2-chloro-4-(6-methylpyridin-2-yl)phenyl)-2-((3-hydroxy-4-methylphenyl)amino)pyrido[2,3-d]pyrimidin-7(8H)-one], the “ΔTm 32” value at BIKE was 6.6 °C; at CHK2, 11.0 °C; at GAK it was 13.3 °C; on MAP2K4, 10.8 °C; on MAP2K6 it was 8.9 °C; at NEK7, -0.6 °C. Moreover, the “ΔTm 32” value at NQO2A was -0.2 °C.
